According to patent publication US20260167926A1, “SPINAL CORD INJURY TREATMENT NEUROSPHERE” (KEIO UNIVERSITY, priority 2019, published 2026):

Experiments:
[1] = tested on: human iPS cell-derived neurospheres; experiment: Neurite length after differentiation of neurospheres into neurons; format: cell-based; conditions: neurospheres cultured one day with inhibitor, then differentiated; 7th and 14th day; 201B7 and 414C2; compared to the untreated group
Procedure: Specifically, in an in vitro experimental system, human iPS cell-derived neurospheres were treated with a γ-secretase inhibitor and a p38 MAPK inhibitor to induce differentiation into neurons. Subsequently, the length of the neurite was measured and evaluated.
DAPT was used as the γ-secretase inhibitor. In addition, SB203580 (CAS Number: 152121-47-6) was used as the p38 MAPK inhibitor. First, human iPS cell-derived neurospheres were cultured for one day in the presence of the γ-secretase inhibitor alone, in the presence of the p38 MAPK inhibitor alone, or in the presence of the γ-secretase inhibitor and the p38 MAPK inhibitor.
Subsequently, various cells were seeded on a poly-L-ornithine/fibronectin-coated 48-well chamber slide (manufactured by Costar Corporation) at a cell density of 1×10^5 cells/mL, and the cells were cultured in a growth factor-free medium at in a 95% air environment at 37° C. and 5% CO2 for 14 days and were differentiated into neurons. Subsequently, on the 7th day and the 14th day after the initiation of differentiation induction, the cells were fixed with 4% paraformaldehyde in 0.1 M PBS, and the length of the neurite was measured.
FIG. 13A is a graph showing the results for neurons derived from 201B7 cells (n=5). In addition, FIG. 13B is a graph showing the results for neurons derived from 414C2 cells (n=5).

[2] = tested on: p38 MAPK; experiment: Immunostaining of p38 MAPK, phosphorylated p38 MAPK and βIII-tubulin in differentiated cells; format: cell-based, human; conditions: 14 days after initiation of differentiation induction
Procedure: Immunostaining of p38 MAPK, phosphorylated p38 MAPK, and βIII-tubulin was performed using cells obtained 14 days after the initiation of differentiation induction. In addition, Hoechst 33342 (CAS Number: 23491-52-3) was used to stain the cell nuclei.
FIG. 14A and FIG. 14B are representative microscopic images showing the results of immunostaining of the cells in the GSI (+) group. In FIG. 14A and FIG. 14B, “Pp38” indicates phosphorylated p38 MAPK, and “Merge” indicates the results of superimposing microscopic images. The scale bar is 20μm.

[3] = tested on: p38 MAPK; experiment: Immunostaining of phosphorylated p38 MAPK in neurons derived from 201B7 neurospheres; format: cell-based, human; conditions: 201B7 neurospheres cultured one day at final concentration of 10 μM, differentiated 14 days
Procedure: Phosphorylation of p38 MAPK in human iPS cell-derived neurospheres treated with a γ-secretase inhibitor was examined.
Specifically, neurospheres derived from 201B7 cells, which are cells of a human iPS cell strain, were cultured for one day in the presence of a secretase inhibitor at a final concentration of 10 μM. Subsequently, the neurospheres were cultured in a growth factor-free medium in a 95% air environment at 37° C. and 5% CO2 for 14 days and were differentiated into nerurons. Subsequently, on the 14th day after the initiation of differentiation induction, the cells were fixed with 4% paraformaldehyde in 0.1 M PBS and observed. DAPT was used as the γ-secretase inhibitor. Immunostaining of phosphorylated p38 MAPK and βIII-tubulin was performed. In addition, Hoechst 33342 (CAS Number: 23491-52-3) was used to stain the cell nuclei.
FIG. 26 is representative microscopic images showing the results of immunostaining. In FIG. 26, “Pp38” represents phosphorylated p38 MAPK, and “Merge” indicates the results of superimposing microscopic images. The scale bar is 20 μm.

Row | SMILES | neurite outgrowth (length of the neurite) [1] | localization of p38-positive region relative to βIII-tubulin-positive neurons [2] | localization of phosphorylated p38-positive region [2] | phosphorylation of p38 MAPK in neurons derived from the neurospheres [3]
1 | C[C@H](NC(=O)Cc1cc(F)cc(F)c1)C(=O)N[C@H](C(=O)OC(C)(C)C)c1ccccc1 [γ-secretase inhibitor, DAPT] | significantly large | co-localized | in the nucleus | enhanced
2 | C[S+]([O-])c1ccc(-c2nc(-c3ccncc3)c(-c3ccc(F)cc3)[nH]2)cc1 (centres unmarked) [p38 MAPK inhibitor, SB203580] | significantly decreased | – | – | –
